# Data published in patent US8598206B2, “Trypsin-like serine protease inhibitors, and their preparation and use” (The Medicines Company (Leipzig) GmbH, priority 2010, dated 2013).
# Columns and labels:
# Assay type in all cases: biochemical
# [1] = target: human activated protein C (Homo sapiens (Human), UniProt P04070); experiment: Inhibition of human activated protein C; settings: Pefachrome PCa substrate; read-out: h aPC Ki
# Protocol: (§1) The inhibitory effect for the individual enzymes was determined in analogy to a previously disclosed method (Stürzebecher et al., J. Med. Chem., 40, 3091-3099 (1997)).
# (§2) 200 μl of TBS (0.05 M trishydroxymethylaminomethane; 0.154 M NaCl, 2% ethanol, pH 8.0)
# (§3) 2 μL of a test compound solution in 50% v/v DMSO/water
# (§4) For zero order kinetics, the reaction was stopped after 20 min by adding 15 μl of acetic acid (80% v/v), and the absorption at 405 nm was determined using a Microplate Reader (Multiscan Ascent™, from Thermo). In the case of pseudo-first order kinetics, the reaction rates in the equilibrium state were determined by continuously recording the change in absorbance at 405 nm. The Ki values were calculated by parameter fitting in accordance with the rate equation for competitive inhibition using the GraFit software, version 4. The Ki values are the average of at least three determinations.
# human Factor Xa = human Factor Xa (Homo sapiens (Human), UniProt P00742); experiment: Inhibition of human Factor Xa; settings: Pefachrome FXa substrate; read-out: h FXa Ki
# Protocol: The inhibitory effect for the individual enzymes was determined in analogy to a previously disclosed method (Stürzebecher et al., J. Med. […] In the case of pseudo-first order kinetics, the reaction rates in the equilibrium state were determined by continuously recording the change in absorbance at 405 nm. […] The Ki values are the average of at least three determinations. Human Factor Xa (h FXa): […]
# human urinary kallikrein = human urinary kallikrein (Homo sapiens (Human), UniProt P06870); experiment: Inhibition of human urinary kallikrein; settings: S-2266 substrate; read-out: h uKK Ki
# Protocol: as §1, §2, §3, §4
# [2] = target: human activated C1r complement component (Homo sapiens (Human), UniProt P00736); experiment: Inhibition of human C1r; settings: S2314 substrate; read-out: h C1r Ki
# Protocol: as §1, §2, §3, §4
# human Factor XIa = human Factor XIa (Homo sapiens (Human), UniProt P03951); experiment: Inhibition of human Factor XIa; settings: Pefachrome PCa substrate; read-out: h FXIa Ki
# Protocol: as §1, §2, §3, §4
# plasmin = plasmin (Homo sapiens (Human), UniProt P00747); experiment: Determination of inhibition constants for human plasmin (chromogenic substrate); settings: 25° C., Chromozym PL substrate; read-out: h plasmin Ki
# Protocol: (§5) Determination of the Inhibition Constants for Human Plasmin (h Plasmin) and Human Plasma Kallikrein (h PK)
# as §1, §2
# (§6) 25 μl of substrate (4 mM, 2 mM and 1 mM tosyl-Gly-Pro-Lys-pNA=Chromozym PL from LOXO for plasmin and 3 mM, 1.5 mM and 1 mM H-D-Pro-Phe-Arg-pNA=S2302 from Chromogenix for PK, dissolved in H2O)
# as §3
# (§7) 50 μl of enzyme solution (plasmin from Calbiochem: 1.7 mU/ml in 0.154 M NaCl+0.1% BSA m/v; plasma kallikrein from Enzyme Research Lab.: 62 ng/ml in 0.154 M NaCl+0.1% BSA m/v)
# as §4
# human alpha-FXIIa = human alpha-FXIIa (Homo sapiens (Human), UniProt P00748); experiment: Inhibition of human alpha-Factor XIIa; settings: CHA-Gly-Arg-pNA substrate; read-out: h FXIIa Ki
# Protocol: as §1, §2, §3, §4
# human alpha-thrombin = human alpha-thrombin (Homo sapiens (Human), UniProt P00734); experiment: Inhibition of human Factor IIa; settings: Pefachrome tPA substrate; read-out: h FIIa Ki
# Protocol: as §1, §2, §3, §4
# human t-PA = human t-PA (Homo sapiens (Human), UniProt P00750); experiment: Inhibition of human tissue-type plasminogen activator; settings: Pefachrome tPA substrate; read-out: h t-PA Ki
# Protocol: as §1, §2, §3, §4
# [3] = target: human activated C1s complement component (Homo sapiens (Human), UniProt P09871); experiment: Inhibition of human C1s; settings: S2314 substrate; read-out: h C1s Ki
# Protocol: as §1, §2, §3, §4
# Subcomponent “s” of Human Complement Component 1 (h C1s): Inhibition of human C1s was determined by the method described in [0092]-[0098] using native human activated C1s complement component from Calbiochem at 29 nM and Val-Ser-Arg-pNA (S2314) at 8 mM, 6 mM, and 4 mM as substrate; results are reported as Ki values (nanomolar).
# plasma kallikrein = plasma kallikrein (Homo sapiens (Human), UniProt P03952); experiment: Determination of inhibition constants for human plasma kallikrein (chromogenic substrate); settings: 25° C., S2302 substrate; read-out: h PK Ki
# Protocol: as §5, §1, §2, §6, §3, §7, §4
# Sequence of human alpha-FXIIa (P00748 373-615): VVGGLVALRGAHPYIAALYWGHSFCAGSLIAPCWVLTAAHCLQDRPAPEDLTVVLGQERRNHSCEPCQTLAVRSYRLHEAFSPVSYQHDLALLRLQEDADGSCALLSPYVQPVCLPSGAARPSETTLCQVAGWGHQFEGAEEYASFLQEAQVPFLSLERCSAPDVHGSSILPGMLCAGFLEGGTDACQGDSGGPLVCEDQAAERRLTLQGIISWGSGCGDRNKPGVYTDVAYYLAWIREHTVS
# Sequence of human alpha-FXIIa (P00748 20-372 partner): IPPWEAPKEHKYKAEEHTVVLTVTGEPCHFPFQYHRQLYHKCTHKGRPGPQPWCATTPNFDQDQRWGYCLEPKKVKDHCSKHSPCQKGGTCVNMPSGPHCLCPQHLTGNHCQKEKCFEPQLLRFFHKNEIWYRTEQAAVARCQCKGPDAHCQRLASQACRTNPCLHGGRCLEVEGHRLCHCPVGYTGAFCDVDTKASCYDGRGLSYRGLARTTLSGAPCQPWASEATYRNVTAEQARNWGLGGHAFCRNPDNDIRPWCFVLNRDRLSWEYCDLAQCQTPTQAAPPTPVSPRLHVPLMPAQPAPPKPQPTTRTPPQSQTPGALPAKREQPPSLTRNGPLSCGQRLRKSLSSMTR
# Sequence of human Factor Xa (P00742 235-488): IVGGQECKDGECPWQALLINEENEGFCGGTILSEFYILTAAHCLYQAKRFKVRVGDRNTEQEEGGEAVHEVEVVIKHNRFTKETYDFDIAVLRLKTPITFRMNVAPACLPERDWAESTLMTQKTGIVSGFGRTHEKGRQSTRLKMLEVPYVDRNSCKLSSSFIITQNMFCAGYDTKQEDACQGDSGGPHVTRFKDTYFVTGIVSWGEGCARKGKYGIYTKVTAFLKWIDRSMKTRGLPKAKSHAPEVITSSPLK
# Sequence of human Factor Xa (P00742 41-179 partner): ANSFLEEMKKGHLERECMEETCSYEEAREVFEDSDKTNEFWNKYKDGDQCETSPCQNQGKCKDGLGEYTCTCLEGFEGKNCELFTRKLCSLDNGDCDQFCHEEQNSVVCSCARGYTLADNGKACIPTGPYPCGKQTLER
# Sequence of human Factor XIa (P03951 388-625): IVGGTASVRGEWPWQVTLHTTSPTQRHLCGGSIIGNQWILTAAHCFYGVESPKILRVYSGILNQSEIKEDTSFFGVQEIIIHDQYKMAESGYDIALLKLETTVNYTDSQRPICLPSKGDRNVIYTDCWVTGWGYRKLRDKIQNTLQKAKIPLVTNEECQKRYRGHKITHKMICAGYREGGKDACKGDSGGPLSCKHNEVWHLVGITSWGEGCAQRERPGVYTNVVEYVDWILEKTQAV
# Sequence of human Factor XIa (P03951 19-387 partner): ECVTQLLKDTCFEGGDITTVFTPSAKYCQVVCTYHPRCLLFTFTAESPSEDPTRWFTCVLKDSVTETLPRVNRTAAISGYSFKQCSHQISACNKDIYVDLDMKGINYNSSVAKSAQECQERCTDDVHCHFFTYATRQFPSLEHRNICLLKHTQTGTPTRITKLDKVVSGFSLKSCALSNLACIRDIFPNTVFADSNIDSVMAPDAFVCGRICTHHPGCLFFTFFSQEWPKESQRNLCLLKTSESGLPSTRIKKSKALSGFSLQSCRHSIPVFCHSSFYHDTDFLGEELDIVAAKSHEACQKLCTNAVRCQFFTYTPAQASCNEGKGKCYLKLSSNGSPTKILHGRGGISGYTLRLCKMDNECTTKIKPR
# Sequence of plasmin (P00747 581-810): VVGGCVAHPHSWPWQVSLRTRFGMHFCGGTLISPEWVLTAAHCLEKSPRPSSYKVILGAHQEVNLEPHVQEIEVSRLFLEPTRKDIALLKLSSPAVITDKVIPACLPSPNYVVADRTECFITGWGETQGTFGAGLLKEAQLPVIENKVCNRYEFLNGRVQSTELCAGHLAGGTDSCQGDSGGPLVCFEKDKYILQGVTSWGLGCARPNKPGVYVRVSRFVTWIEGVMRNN
# Sequence of plasmin (P00747 97-580 partner): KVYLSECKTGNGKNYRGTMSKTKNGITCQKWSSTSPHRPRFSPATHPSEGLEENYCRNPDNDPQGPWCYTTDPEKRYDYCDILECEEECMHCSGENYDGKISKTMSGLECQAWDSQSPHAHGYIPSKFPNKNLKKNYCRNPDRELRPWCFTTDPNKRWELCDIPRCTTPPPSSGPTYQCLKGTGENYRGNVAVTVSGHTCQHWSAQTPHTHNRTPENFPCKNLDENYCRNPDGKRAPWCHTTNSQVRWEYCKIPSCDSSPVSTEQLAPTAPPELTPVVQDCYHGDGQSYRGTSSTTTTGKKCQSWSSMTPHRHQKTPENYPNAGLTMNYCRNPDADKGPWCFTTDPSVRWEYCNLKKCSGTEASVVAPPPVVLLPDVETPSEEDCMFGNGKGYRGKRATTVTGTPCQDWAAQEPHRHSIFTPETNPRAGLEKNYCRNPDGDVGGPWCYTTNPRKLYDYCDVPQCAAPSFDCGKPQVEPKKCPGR
# Sequence of human activated protein C (P04070 212-450): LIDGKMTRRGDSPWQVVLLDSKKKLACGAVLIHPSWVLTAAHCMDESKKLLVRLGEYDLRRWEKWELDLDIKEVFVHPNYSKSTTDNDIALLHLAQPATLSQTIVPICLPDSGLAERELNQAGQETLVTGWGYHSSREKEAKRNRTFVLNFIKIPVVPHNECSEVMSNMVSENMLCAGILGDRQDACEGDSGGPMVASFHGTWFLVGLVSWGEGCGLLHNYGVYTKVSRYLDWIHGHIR
# Sequence of human activated protein C (P04070 43-197 partner): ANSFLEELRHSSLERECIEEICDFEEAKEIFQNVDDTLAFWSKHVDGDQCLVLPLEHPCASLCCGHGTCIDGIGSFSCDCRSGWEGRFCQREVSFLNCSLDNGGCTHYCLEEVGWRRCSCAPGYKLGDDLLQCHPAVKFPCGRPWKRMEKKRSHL
# Sequence of human activated C1r complement component (P00736 464-705): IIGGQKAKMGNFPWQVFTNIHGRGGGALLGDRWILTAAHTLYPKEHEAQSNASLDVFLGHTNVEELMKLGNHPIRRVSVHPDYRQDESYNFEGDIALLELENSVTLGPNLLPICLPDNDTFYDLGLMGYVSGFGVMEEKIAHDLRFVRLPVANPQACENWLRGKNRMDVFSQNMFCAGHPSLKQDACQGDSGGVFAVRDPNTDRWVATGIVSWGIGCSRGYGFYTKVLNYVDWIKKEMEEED
# Sequence of human activated C1r complement component (P00736 18-463 partner): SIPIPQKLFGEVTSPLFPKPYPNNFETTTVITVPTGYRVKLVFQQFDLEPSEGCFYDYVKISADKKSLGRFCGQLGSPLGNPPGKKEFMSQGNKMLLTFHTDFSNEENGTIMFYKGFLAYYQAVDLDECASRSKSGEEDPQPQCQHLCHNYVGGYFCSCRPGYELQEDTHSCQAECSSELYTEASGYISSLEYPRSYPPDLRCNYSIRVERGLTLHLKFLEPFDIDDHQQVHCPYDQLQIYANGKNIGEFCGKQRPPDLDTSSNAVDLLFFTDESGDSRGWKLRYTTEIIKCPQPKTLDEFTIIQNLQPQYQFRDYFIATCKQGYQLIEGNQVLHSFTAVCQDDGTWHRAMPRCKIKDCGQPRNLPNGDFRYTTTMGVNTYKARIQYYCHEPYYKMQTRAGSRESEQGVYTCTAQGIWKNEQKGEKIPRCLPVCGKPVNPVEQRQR
# Sequence of human t-PA (P00750 36-562): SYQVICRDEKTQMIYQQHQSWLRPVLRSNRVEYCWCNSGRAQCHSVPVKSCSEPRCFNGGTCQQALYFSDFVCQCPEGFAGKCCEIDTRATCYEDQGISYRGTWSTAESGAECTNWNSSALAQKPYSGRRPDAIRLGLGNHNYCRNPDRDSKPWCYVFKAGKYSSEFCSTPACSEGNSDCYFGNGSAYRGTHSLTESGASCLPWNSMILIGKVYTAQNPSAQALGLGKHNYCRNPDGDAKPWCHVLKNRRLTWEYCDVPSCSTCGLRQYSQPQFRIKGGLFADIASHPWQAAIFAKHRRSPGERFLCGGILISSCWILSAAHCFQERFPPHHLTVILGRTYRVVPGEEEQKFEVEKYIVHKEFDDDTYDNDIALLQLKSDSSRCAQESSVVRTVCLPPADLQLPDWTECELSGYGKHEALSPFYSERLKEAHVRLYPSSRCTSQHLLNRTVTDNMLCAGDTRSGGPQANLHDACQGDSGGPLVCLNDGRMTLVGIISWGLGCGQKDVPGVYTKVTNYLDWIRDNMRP
# Sequence of human urinary kallikrein (P06870 25-262): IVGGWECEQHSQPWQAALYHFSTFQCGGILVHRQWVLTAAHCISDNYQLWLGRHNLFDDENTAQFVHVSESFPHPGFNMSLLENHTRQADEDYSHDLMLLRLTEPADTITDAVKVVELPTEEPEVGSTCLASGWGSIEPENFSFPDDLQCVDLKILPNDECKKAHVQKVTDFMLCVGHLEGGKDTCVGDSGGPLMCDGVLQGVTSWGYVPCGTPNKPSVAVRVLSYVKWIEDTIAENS
# Sequence of human activated C1s complement component (P09871 438-688): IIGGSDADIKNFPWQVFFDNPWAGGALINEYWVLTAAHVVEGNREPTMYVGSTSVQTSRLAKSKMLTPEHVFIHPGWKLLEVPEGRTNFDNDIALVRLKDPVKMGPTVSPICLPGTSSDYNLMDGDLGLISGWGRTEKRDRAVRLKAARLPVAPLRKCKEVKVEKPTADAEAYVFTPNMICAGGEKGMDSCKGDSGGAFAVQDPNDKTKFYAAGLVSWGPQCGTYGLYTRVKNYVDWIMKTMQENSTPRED
# Sequence of human activated C1s complement component (P09871 16-437 partner): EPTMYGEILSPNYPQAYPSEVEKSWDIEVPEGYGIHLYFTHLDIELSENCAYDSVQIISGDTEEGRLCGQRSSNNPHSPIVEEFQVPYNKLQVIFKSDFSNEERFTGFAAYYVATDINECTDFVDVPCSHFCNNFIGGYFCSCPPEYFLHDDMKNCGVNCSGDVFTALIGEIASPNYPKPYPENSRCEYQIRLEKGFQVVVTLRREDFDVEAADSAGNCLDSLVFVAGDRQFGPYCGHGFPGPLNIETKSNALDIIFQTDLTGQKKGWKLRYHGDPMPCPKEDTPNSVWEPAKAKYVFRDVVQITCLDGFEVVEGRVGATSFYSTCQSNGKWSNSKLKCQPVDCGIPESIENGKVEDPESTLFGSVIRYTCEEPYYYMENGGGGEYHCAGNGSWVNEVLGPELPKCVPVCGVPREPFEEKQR
Structure (SMILES),Ki [1],Ki (human Factor Xa),Ki (human urinary kallikrein),Ki [2],Ki (human Factor XIa),Ki (plasmin),Ki (human alpha-FXIIa),Ki (human alpha-thrombin),Ki (human t-PA),Ki [3],Ki (plasma kallikrein)
CN(C)C(=O)N1CCC(CC[C@@H](NS(=O)(=O)Cc2ccccc2)C(=O)N[C@@H](CCC2CCNCC2)C(=O)NCc2ccc(C(=N)N)cc2)CC1,1600 nM,2500 nM,> 200000 nM,> 50000 nM,1500 nM,0.8 nM,2000 nM,13000 nM,8300 nM,13000 nM,4 nM
COC(=O)c1cccc(CS(=O)(=O)N[C@H](CCCc2ccccc2)C(=O)N[C@@H](CCC2CCNCC2)C(=O)NCc2ccc(C(=N)N)cc2)c1,570 nM,5900 nM,> 20000 nM,> 30000 nM,500 nM,2.7 nM,> 10000 nM,920 nM,3900 nM,4800 nM,9.4 nM
N=C(N)c1ccc(CNC(=O)[C@H](CCC2CCNCC2)NC(=O)[C@@H](CCCc2cc[n+]([O-])cc2)NS(=O)(=O)Cc2ccccc2)cc1 [drawing 123],850 nM,400 nM,> 200000 nM,> 30000 nM,1400 nM,1 nM,870 nM,4900 nM,2400 nM,9500 nM,4 nM
N=C(N)c1ccc(CNC(=O)[C@H](CCC2CCNCC2)NC(=O)[C@@H](CCCc2ccncc2)NS(=O)(=O)Cc2ccccc2)cc1,600 nM,850 nM,> 80000 nM,> 50000 nM,500 nM,0.4 nM,1500 nM,1200 nM,2300 nM,4950 nM,2.7 nM
CCC(=O)N1CCC(CC[C@@H](NS(=O)(=O)Cc2ccccc2)C(=O)N[C@@H](CCC2CCNCC2)C(=O)NCc2ccc(C(=N)N)cc2)CC1,1200 nM,2300 nM,> 60000 nM,> 35000 nM,720 nM,0.8 nM,650 nM,5600 nM,5100 nM,> 25000 nM,0.9 nM
CNC(=O)N1CCC(CC[C@@H](NS(=O)(=O)Cc2ccccc2)C(=O)N[C@@H](CCC2CCNCC2)C(=O)NCc2ccc(C(=N)N)cc2)CC1,1100 nM,1700 nM,> 200000 nM,> 20000 nM,1300 nM,1 nM,550 nM,4800 nM,5300 nM,> 20000 nM,2 nM
N=C(N)c1ccc(CNC(=O)[C@H](CCC2CCNCC2)NC(=O)[C@@H](CCCC2CCNCC2)NS(=O)(=O)Cc2ccccc2)cc1,400 nM,300 nM,> 50000 nM,> 50000 nM,800 nM,2 nM,,800 nM,,8000 nM,7.5 nM
COC(=O)N1CCC(CCC[C@@H](NS(=O)(=O)Cc2ccccc2)C(=O)N[C@@H](CCC2CCNCC2)C(=O)NCc2ccc(C(=N)N)cc2)CC1,800 nM,400 nM,> 100000 nM,> 100000 nM,600 nM,1 nM,400 nM,3600 nM,,6500 nM,1.5 nM
N=C(N)c1ccc(CNC(=O)[C@H](CCC2CCNCC2)NC(=O)[C@@H](CCCc2ccccc2)NS(=O)(=O)Cc2ccccc2)cc1,555 nM,1100 nM,> 50000 nM,,135 nM,0.25 nM,3000 nM,240 nM,1700 nM,> 5000 nM,1.5 nM
N=C(N)c1ccc(CNC(=O)[C@H](CCC2CCNCC2)NC(=O)[C@@H](CCc2cc[n+]([O-])cc2)NS(=O)(=O)Cc2ccccc2)cc1,250 nM,120 nM,> 100000 nM,> 50000 nM,2500 nM,5 nM,,9000 nM,,4200 nM,20 nM
